Results from patent US20220031708A1, “METHOD FOR TREATING IDIOPATHIC PULMONARY FIBROSIS” (NuMedii, Inc., priority 2019, published 2022).
Where two headings read alike, the source gives them in different places.

Legend:
[1] = system: mouse model of pulmonary fibrosis; assay: Bleomycin mouse model of pulmonary fibrosis: histopathology and collagen deposition; type: in vivo, C57BL6 mice; conditions: for Collagen deposition (% pixel count) / Fiber Alignment / Fiber Count / Fiber Density: relative vs vehicle; for disease burden by collagen deposition, fiber count, fiber density and fiber alignment (Sirius red): FIG. 4A, FIG. 4B, Table 8; for histopathology scores (Ashcroft, Masson's Trichrome): PF-477736 10 or 20 mg/kg i.p., nintedanib 100 mg/kg orally, FIG. 3A
Experimental: To induce fibrosis, 6-8 week old C57BL6 mice were dosed with 3 mg/kg bleomycin hydrochloride in a volume of 50 μL per animal via intratracheal (i.t.) administration with a microsprayer. One week following administration of bleomycin, mice were treated with compound or vehicle once daily from day 7 to day 20. PF-477736 was administered at a dose of either 10 mg/kg (“med”) or 20 mg/kg (“high”) i.p. in a vehicle of […] sodium acetate buffer and 4% dextrose, pH 4. Nintedanib was administered orally at 100 mg/kg in a vehicle of 1% methylcellulose. n=10 mice per group.
At the end of the study, lungs were processed using standard histological methods for Masson's Trichrome staining and were assigned Ashcroft scores by a blinded pathologist.
Whole lung imaging was performed using a modified deep learning algorithm to calculate an average histogram (FIG. 3B) and empirical cumulative density function (ECDF, FIG. 3C) for each arm. The X axes represent severity of pathology, and the Y axes represent frequency (histograms) or cumulative frequency (ECDF).
Histological sections were also stained using Sirius red and assessed for collagen deposition (%), collagen fiber count, collagen fiber density, and collagen fiber alignment in a protocol modified from Bredfeldt et al. 2014, “Computational segmentation of collagen fibers from second-harmonic generation images of breast cancer.” Journal of biomedical optics 19.1.

[2] = system: Human lung fibroblasts from three donors; assay: FMT assay, Chk1 inhibitor combined with nintedanib or pirfenidone; type: cell-based; conditions: nintedanib concentration curve, Chk1 inhibitor at pre-determined IC20; FIG. 7
Experimental: Human lung fibroblasts from three donors were seeded in 96-well plates and treated with 1.25 ng/mL TGFb to induce differentiation to a myofibroblast phenotype (characterized by the induction of alpha smooth muscle actin—aSMA). A Chk1 inhibitor PF-477736, or standard-of-care compounds in IPF (nintedanib or pirfenidone) were dosed as indicated in an 8-point concentration curve 1 hr prior to TGFb treatment. Alpha-SMA and DAPI staining were assessed after 72 hours using high content analysis for percent inhibition of aSMA induction and % viable cells. CRC=concentration response curve. The first noted compound was dosed in an 8-point concentration curve, while the second noted compound was dosed at the pre-determined IC20 in this assay.
For each condition, percent inhibition (PIN) of aSMA induction was calculated (circles, and left y-axis), and the percent of viable cells was calculated (triangles, right y-axis).

[3] = system: lung fibroblasts isolated from human IPF donor lungs; assay: Fibroblast-to-myofibroblast transition (FMT), aSMA induction by TGFb, IPF donor fibroblasts; type: cell-based; conditions: 1.25 ng/mL TGFb; for IC50: Homo sapiens, Fibroblast, 72 h, read-out: LogM IC50 aSMA (converted); for LogM IC50 aSMA: 72 hours
Experimental: (§1) Primary fibroblasts cultured from the lungs of patients with IPF (n=3) or healthy donors (n=3) were exposed to Chk1 inhibitors or control compounds to determine the effect of Chk1 inhibitors on fibroblast differentiation into myofibroblasts (i.e., fibroblast-to-myofibroblast transition [FMT]). […] Chk1 inhibitors were dosed in an 8-point concentration curve 1 hr prior to TGFb treatment. Alpha-SMA and DAPI staining were assessed after 72 hours using high content analysis. The ability of the Chk1 inhibitors to block fibroblast-to-myofibroblast differentiation was determined by quantifying percent inhibition (PIN) of aSMA induction. Cell viability was also measured to determine whether the compounds were cytotoxic.

[4] = system: Primary fibroblasts cultured from the lungs of healthy donors; assay: Fibroblast-to-myofibroblast transition (FMT), aSMA induction by TGFb, healthy donor fibroblasts; type: cell-based, human; conditions: 1.25 ng/mL TGFb; for IC50: Homo sapiens, Fibroblast, 72 h, read-out: LogM IC50 aSMA (converted); for LogM IC50 aSMA: 72 hours
Experimental: as §1

[5] = system: macrophages exposed to LPS and IFNg; assay: Luminex-based assay of cytokines and MMPs in macrophage supernatants; type: cell-based, human; conditions: FIG. 2C
Experimental: (§2) Human monocytes were isolated from the peripheral blood of IPF patients, exposed to various doses of PF-477736 for 1 hour, and then differentiated into M1 macrophages by exposure to LPS/IFNg, or into M2 macrophages by exposure to IL-4, for 3 days. The cells were analyzed by flow cytometry for CD80 cell surface expression as marker of M1 differentiation, and for CD163 cell surface expression as marker of M2 differentiation. In addition, cell supernatants were tested in a Luminex-based assay for various cytokines and matrix metalloproteinases (MMPs).

[6] = system: M2 macrophages differentiated from human monocytes; assay: M2 macrophage activation, CD163 flow cytometry after IL-4; type: cell-based; conditions: dosed 1 hour before IL-4, 3 days; FIG. 2B
Experimental: as §2

[7] = system: M1 macrophages differentiated from human monocytes; assay: M1 macrophage activation, CD80 flow cytometry after LPS/IFNg; type: cell-based; conditions: dosed 1 hour before LPS/IFNg, 3 days; FIG. 2A
Experimental: as §2

[8] = 100 mg/kg orally once daily day 7 to day 20
[9] = 20 mg/kg i.p. once daily day 7 to day 20
[10] = Multi-dose: mice from both the 10 mg/kg and the 20 mg/kg groups
[11] = donor FB0303*, Healthy (aberrant response to nintedanib)

Molecule: COC(=O)c1ccc2c(c1)NC(=O)/C2=C(\Nc1ccc(N(C)C(=O)CN2CCN(C)CC2)cc1)c1ccccc1 [Nintedanib]
- Collagen deposition (% pixel count) [1, 8]: +0.31 % pixel count
- Fiber Alignment [1, 8]: −0.03
- Fiber Count [1, 8]: +20
- Fiber Density [1, 8]: +0.40
- disease burden by collagen deposition, fiber count, fiber density and fiber alignment (Sirius red) [1]: did not
- histopathology scores (Ashcroft, Masson's Trichrome) [1]: improved histopathology scores
- concentration of nintedanib required for 50% inhibition of fibroblast to myofibroblast differentiation [2]: lower when co-administered with a Chk1 inhibitor

Molecule: COc1cc2nc(-c3cc(F)ccc3O)nc(N[C@@H]3CNC[C@H]3C(C)(C)O)c2cc1OC [CCT-241533]
- IC50 ([3]; donor IPF06, IPF): 631 nM
- IC50 ([3]; donor IPF07, IPF): 158 nM
- IC50 ([3]; donor IPF08, IPF): 316 nM
- IC50 ([4]; donor FB0054, Healthy): 398 nM
- IC50 ([4]; donor FB2382, Healthy): 501 nM

Molecule: PF-477736
- levels of representative cytokines and matrix metalloproteinases in supernatants [5]: lower levels of representative cytokines and matrix metalloproteinases
- M2 macrophage activation (CD163 cell surface expression) [6]: inhibits M2 macrophage activation in a dose-dependent manner
- Collagen deposition (% pixel count) ([1]; 10 mg/kg i.p. once daily day 7 to day 20): −1.27 % pixel count
- Collagen deposition (% pixel count) [1, 9]: −1.64 % pixel count
- Fiber Alignment [1, 9]: 0.08
- Fiber Count [1, 9]: −66.3
- Fiber Density [1, 9]: −0.66
- disease burden by collagen deposition, fiber count, fiber density and fiber alignment (Sirius red) [1]: reduced disease burden by all of these parameters in a dose-dependent manner
- Collagen deposition (% pixel count) [1, 10]: −1.63 % pixel count
- Fiber Alignment [1, 10]: 0.08
- Fiber Count [1, 10]: −67.7
- Fiber Density [1, 10]: −0.69
- histopathology scores (Ashcroft, Masson's Trichrome) [1]: improved histopathology scores
- pathology severity, whole lung imaging (histogram, ECDF) ([1]; deep learning algorithm, FIG. 3B, 3C): greater reduction in pathology severity compared to nintedanib
- M1 macrophage activation (CD80 cell surface expression) [7]: inhibits M1 macrophage activation in a dose-dependent manner

Molecule: N#Cc1cnc(Nc2cc(NC[C@H]3CNCCO3)c(C(F)(F)F)cn2)cn1 [CCT-245737]
- IC50 ([3]; donor IPF06, IPF): 3160 nM
- IC50 ([3]; donor IPF07, IPF): 3160 nM
- IC50 ([3]; donor IPF08, IPF): 3160 nM
- IC50 ([4]; donor FB0054, Healthy): 3160 nM
- IC50 [4, 11]: 2510 nM
- IC50 ([4]; donor FB2382, Healthy): 3160 nM

Molecule: N[C@@H]1CCCN(c2c(Br)cnc3[nH]cc(NC(=O)C4CC4)c23)C1 [GDC-0575]
- LogM IC50 aSMA ([3]; donor IPF06, IPF): −5.7 LogM
- LogM IC50 aSMA ([3]; donor IPF07, IPF): −5.7 LogM
- LogM IC50 aSMA ([3]; donor IPF08, IPF): −5.8 LogM
- LogM IC50 aSMA ([4]; donor FB0054, Healthy): −5.9 LogM
- LogM IC50 aSMA [4, 11]: −5.8 LogM
- LogM IC50 aSMA ([4]; donor FB2382, Healthy): −5.9 LogM

Molecule: Cn1cc(-c2cnn3c(N)c(Br)c([C@@H]4CCCNC4)nc23)cn1 [MK-8776]
- IC50 ([3]; donor IPF06, IPF): 2000 nM
- IC50 ([3]; donor IPF07, IPF): 2000 nM
- IC50 ([3]; donor IPF08, IPF): 1580 nM
- IC50 [4, 11]: 398 nM
- IC50 ([4]; donor FB2382, Healthy): 3160 nM

Molecule: NC(=O)Nc1cc(-c2cccc(F)c2)sc1C(=O)N[C@H]1CCCNC1 [AZD-7762]
- IC50 ([3]; donor IPF06, IPF): 794 nM
- IC50 ([3]; donor IPF07, IPF): 794 nM
- IC50 ([3]; donor IPF08, IPF): 501 nM
- IC50 ([4]; donor FB0054, Healthy): 1260 nM
- IC50 ([4]; donor FB2382, Healthy): 631 nM

Molecule: COc1cccc(OCCCN)c1-c1cc(Nc2cnc(C#N)cn2)n[nH]1 [prexasertib]
- IC50 ([3]; donor IPF06, IPF): 1000 nM
- IC50 ([3]; donor IPF07, IPF): 1000 nM
- IC50 ([3]; donor IPF08, IPF): 631 nM
- IC50 ([4]; donor FB0054, Healthy): 631 nM
- IC50 ([4]; donor FB2382, Healthy): 794 nM
